According to ChEMBL document CHEMBL3526121, “Pharmacokinetics, bioavailability, tissue distribution, excretion, and metabolite identification of methoxyflavones in Kaempferia parviflora extract in rats” (Drug Metab Dispos, 2012):
One block for each molecule: values may come before it.

Experiments:
[1] = Drug excretion in Wistar rat urine at 750 mg/kg, po after 12 hrs by HPLC-UV analysis; format: ADME, organism-based; set-up: dose 750 mg/kg, route oral; details: in vivo
[2] = Drug excretion in Wistar rat feces at 750 mg/kg, po after 12 hrs by HPLC-UV analysis; format: ADME, organism-based; set-up: dose 750 mg/kg, route oral; details: in vivo
Rattus norvegicus [3] = test: Volume of distribution in Wistar rat at 250 mg/kg, po by HPLC analysis; format: ADME, organism-based; set-up: dose 250 mg/kg, route oral; details: in vivo
[4] = Oral bioavailability in Wistar rat at 250 mg/kg by HPLC analysis; format: ADME, organism-based; details: in vivo
[5] = Cmax in Wistar rat at 250 mg/kg, po by HPLC analysis; format: ADME, organism-based; set-up: dose 250 mg/kg, route oral; details: in vivo
[6] = Drug excretion in Wistar rat feces at 750 mg/kg, po after up to 72 hrs by HPLC-UV analysis; format: ADME, organism-based; set-up: dose 750 mg/kg, route oral; details: faeces, read-out: Drug excretion
[7] = Drug metabolism in Wistar rat assessed as excretion of 3,5-dihydroxy-2-(3-hydroxy-4-methoxyphenyl)-7-methoxy-4H-chromen-4-one in feces at 750 mg/kg, po by LC-MS and LC-MS/MS analysis; format: ADME, organism-based; set-up: dose 750 mg/kg, route oral; details: in vivo
[8] = Tmax in Wistar rat brain at 750 mg/kg, po by LC-MS/MS analysis; format: ADME, organism-based; set-up: dose 750 mg/kg, route oral
[9] = Cmax in Wistar rat kidney at 750 mg/kg, po by LC-MS/MS analysis; format: ADME, organism-based; set-up: dose 750 mg/kg, route oral
[10] = AUC (0.083 to 4 hrs) in Wistar rat testes at 750 mg/kg, po by LC-MS/MS analysis; format: ADME, organism-based, Testis; set-up: time 0.083-4 hr, dose 750 mg/kg, route oral; details: in vivo
[11] = Tmax in Wistar rat lung at 750 mg/kg, po by LC-MS/MS analysis; format: ADME, organism-based; set-up: dose 750 mg/kg, route oral
Rattus norvegicus [12] = test: Absorption rate constant in Wistar rat at 250 mg/kg, po by HPLC analysis; format: ADME, organism-based; set-up: dose 250 mg/kg, route oral; details: in vivo
[13] = Drug excretion in Wistar rat urine at 750 mg/kg, po after 24 to 72 hrs by HPLC-UV analysis; format: ADME, organism-based; set-up: dose 750 mg/kg, route oral; details: in vivo
[14] = Elimination rate constant in Wistar rat at 250 mg/kg, po by HPLC analysis; format: ADME, organism-based; set-up: dose 250 mg/kg, route oral; details: in vivo, read-out: Ke (converted)
[15] = Tmax in Wistar rat liver at 750 mg/kg, po by LC-MS/MS analysis; format: ADME, organism-based; set-up: dose 750 mg/kg, route oral
[16] = Drug metabolism in Wistar rat assessed as excretion of 5-hydroxy-2-(3-hydroxy-4-methoxyphenyl)-3,7-dimethoxy-4H-chromen-4-one in urine/feces at 750 mg/kg, po by LC-MS and LC-MS/MS analysis; format: ADME, organism-based; set-up: dose 750 mg/kg, route oral; details: in vivo
[17] = Cmax in Wistar rat lung at 750 mg/kg, po by LC-MS/MS analysis; format: ADME, organism-based; set-up: dose 750 mg/kg, route oral
[18] = Drug metabolism in Wistar rat assessed as excretion of 2-(3-hydroxy-4-methoxyphenyl)-3,5,7-trimethoxy-4H-chromen-4-one in urine at 750 mg/kg, po by LC-MS and LC-MS/MS analysis; format: ADME, organism-based; set-up: dose 750 mg/kg, route oral; details: in vivo
[19] = Cmax in Wistar rat brain at 750 mg/kg, po by LC-MS/MS analysis; format: ADME, organism-based; set-up: dose 750 mg/kg, route oral
Brain = test: AUC (0.083 to 4 hrs) in Wistar rat brain at 750 mg/kg, po by LC-MS/MS analysis; format: ADME, organism-based; set-up: time 0.083-4 hr, dose 750 mg/kg, route oral; details: in vivo
Lung = test: AUC (0.083 to 4 hrs) in Wistar rat lung at 750 mg/kg, po by LC-MS/MS analysis; format: ADME, organism-based; set-up: time upper 4 hr, time lower 0.083 hr, dose 750 mg/kg, route oral; details: in vivo
[20] = Clearance in Wistar rat at 250 mg/kg, po by HPLC analysis; format: ADME, organism-based; set-up: dose 250 mg/kg, route oral; details: in vivo
Rattus norvegicus [21] = test: Elimination rate constant in Wistar rat at 250 mg/kg, iv by HPLC analysis; format: ADME, organism-based; set-up: dose 250 mg/kg, route intravenous; details: in vivo
[22] = Clearance in Wistar rat at 250 mg/kg, iv by HPLC analysis; format: ADME, organism-based; set-up: dose 250 mg/kg, route intravenous; details: in vivo
[23] = Tmax in Wistar rat kidney at 750 mg/kg, po by LC-MS/MS analysis; format: ADME, organism-based; set-up: dose 750 mg/kg, route oral
Kidney = test: AUC (0.083 to 4 hrs) in Wistar rat kidney at 750 mg/kg, po by LC-MS/MS analysis; format: ADME, organism-based; set-up: time 0.083-4 hr, dose 750 mg/kg, route oral; details: in vivo
[24] = Tmax in Wistar rat at 250 mg/kg, po by HPLC analysis; format: ADME, organism-based; set-up: dose 250 mg/kg, route oral; details: in vivo
Rattus norvegicus [25] = test: Half life in Wistar rat at 250 mg/kg, iv by HPLC analysis; format: ADME, organism-based; set-up: dose 250 mg/kg, route intravenous; details: in vivo
[26] = Drug excretion in Wistar rat feces at 750 mg/kg, po after 18 to 24 hrs by HPLC-UV analysis; format: ADME, organism-based; set-up: dose 750 mg/kg, route oral; details: in vivo
[27] = Half life in Wistar rat at 250 mg/kg, po by HPLC analysis; format: ADME, organism-based; set-up: dose 250 mg/kg, route oral; details: in vivo
[28] = Tmax in Wistar rat testes at 750 mg/kg, po by LC-MS/MS analysis; format: ADME, organism-based, Testis; set-up: dose 750 mg/kg, route oral
[29] = Drug excretion in Wistar rat urine at 750 mg/kg, po after up to 72 hrs by HPLC-UV analysis; format: ADME, organism-based; set-up: dose 750 mg/kg, route oral; details: read-out: Drug excretion
[30] = Cmax in Wistar rat testes at 750 mg/kg, po by LC-MS/MS analysis; format: ADME, organism-based, Testis; set-up: dose 750 mg/kg, route oral
[31] = AUC in Wistar rat at 250 mg/kg, iv by HPLC analysis; format: ADME, organism-based; set-up: dose 250 mg/kg, route intravenous; details: plasma
[32] = Cmax in Wistar rat liver at 750 mg/kg, po by LC-MS/MS analysis; format: ADME, organism-based; set-up: dose 750 mg/kg, route oral
Liver = test: AUC (0.083 to 4 hrs) in Wistar rat liver at 750 mg/kg, po by LC-MS/MS analysis; format: ADME, organism-based; set-up: time 0.083-4 hr, dose 750 mg/kg, route oral; details: in vivo
[33] = AUC in Wistar rat at 250 mg/kg, po by HPLC analysis; format: ADME, organism-based; set-up: dose 250 mg/kg, route oral; details: plasma
[34] = Drug metabolism in Wistar rat urine/feces treated with 750 mg/kg, po of 5,7,4'-trimethoxyflavone by LC-MS and LC-MS/MS analysis; format: ADME, organism-based; set-up: dose 750 mg/kg, route oral; details: in vivo
[35] = Drug metabolism in Wistar rat urine/feces treated with 750 mg/kg, po of 5,7-dimethoxyflavone by LC-MS and LC-MS/MS analysis; format: ADME, organism-based; set-up: dose 750 mg/kg, route oral; details: in vivo
[36] = Drug metabolism in Wistar rat urine/feces treated with 750 mg/kg, po of 3,5,7,4'-tetramethoxyflavone by LC-MS and LC-MS/MS analysis; format: ADME, organism-based; set-up: dose 750 mg/kg, route oral; details: in vivo
[37] = Drug metabolism in Wistar rat urine/feces treated with 750 mg/kg, po of 3,5,7,3',4'-pentamethoxyflavone by LC-MS and LC-MS/MS analysis; format: ADME, organism-based; set-up: dose 750 mg/kg, route oral; details: in vivo

SMILES: COc1ccc(-c2cc(=O)c3c(OS(=O)(=O)O)cc(OC)cc3o2)cc1
Drug metabolism [34]: metabolite_detected

SMILES: COc1cc(OS(=O)(=O)O)c2c(=O)cc(-c3ccccc3)oc2c1
Drug metabolism [35]: metabolite_detected

SMILES: COc1cc(OC)c2c(=O)c(OC)c(-c3ccc(OC)c(O)c3)oc2c1
Drug metabolism [37]: metabolite_detected

SMILES: COc1ccc(-c2oc3cc(OC)cc(O)c3c(=O)c2OC)cc1
Drug excretion [1]: Active | Drug excretion [2]: Active

The remaining lines, values ahead:

Drug excretion [1]: Active | Drug excretion [2]: Active
SMILES: COc1cc(O)c2c(=O)c(OC)c(-c3ccccc3)oc2c1

Vd (Rattus norvegicus [3]): 2637.13 mL | bioavailability [4]: 3.32% | Cmax [5]: 550 ng/mL | dose excreted at 72 h [6]: 0.79% | Drug metabolism [7]: metabolite_detected | Tmax [8]: 3.14 h | Cmax [9]: 1000 ng/g | AUC [10]: 1.01 µg·h/g | Tmax [11]: 4.8 min | ka (Rattus norvegicus [12]): 1.23 h⁻¹ | Drug excretion [13]: Active | k el [14]: 7.78e-05 s⁻¹ | Drug excretion [1]: Active | Tmax [15]: 3.43 h | Drug metabolism [16]: metabolite_detected | Cmax [17]: 2230 ng/g | Drug metabolism [18]: metabolite_detected | Cmax [19]: 260 ng/g | AUC (Brain): 0.76 µg·h/g | Drug excretion [2]: Active | AUC (Lung): 1.6 µg·h/g | CL/F [20]: 10.4 mL/min | Ke (Rattus norvegicus [21]): 0.61 h⁻¹ | clearance [22]: 0.359 mL/min | Tmax [23]: 3.43 h | AUC (Kidney): 2.03 µg·h/g | Tmax [24]: 1.71 h | t1/2 (Rattus norvegicus [25]): 2.36 h | Drug excretion [26]: Active | half-life [27]: 3.12 h | Tmax [28]: 2.36 h | dose excreted at 72 h [29]: 1.06% | Cmax [30]: 500 ng/g | AUC [31]: 76800 ng·h/mL | Cmax [32]: 3100 ng/g | AUC (Liver): 9.07 µg·h/g | AUC [33]: 3650 ng·h/mL
SMILES: COc1cc(OC)c2c(=O)c(OC)c(-c3ccc(OC)c(OC)c3)oc2c1

Drug metabolism [34]: metabolite_detected
SMILES: COc1ccc(-c2cc(=O)c3c(O)cc(OS(=O)(=O)O)cc3o2)cc1

Drug metabolism [36]: metabolite_detected
SMILES: COc1ccc(-c2oc3cc(OC)cc(O)c3c(=O)c2O)cc1

Drug metabolism [37]: metabolite_detected
SMILES: COc1cc(O)c2c(=O)c(OC)c(-c3ccc(OC)c(O)c3)oc2c1 [AYANIN]
